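Briefly, cells in 96-well plates were exposed to five compound concentrations for 48 h, and endpoints were estimated by linear interpolation. At the GI50, growth is halved.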 Activity calls are given as the source filed them. Rule as the data show it: active = GI50 up to about 1.1 µM and inactive = higher.
Key:
Experiment in all cases: growth of human tumour cells (NCI), 48 h
[1] = tested on: NCI/ADR-RES
[2] = tested on: U-251
[3] = tested on: HCC 2998
[4] = tested on: NCI-H23
[5] = tested on: IGROV-1
[6] = tested on: MDA-MB-231
[7] = tested on: A498
[8] = tested on: OVCAR-4
[9] = tested on: MCF7
[10] = tested on: DU-145
[11] = tested on: MOLT-4
[12] = tested on: CAKI-1
[13] = tested on: BT-549
[14] = tested on: HCT-116
[15] = tested on: HOP-62
[16] = tested on: SK-MEL-2
[17] = tested on: RPMI-8226
[18] = tested on: SN12C
[19] = tested on: UACC-62
[20] = tested on: NCI-H522
[21] = tested on: SNB-19
[22] = tested on: LOX IMVI
[23] = tested on: Malme-3M
[24] = tested on: UACC-257
[25] = tested on: M14
[26] = tested on: SF-539
[27] = tested on: EKVX
[28] = tested on: COLO 205
[29] = tested on: RXF 393
[30] = tested on: OVCAR-8
[31] = tested on: SF-268
[32] = tested on: NCI-H460
[33] = tested on: ACHN
[34] = tested on: OVCAR-5
[35] = tested on: HOP-92
[36] = tested on: SK-MEL-28
[37] = tested on: Hs-578T
[38] = tested on: SK-OV-3
[39] = tested on: HL-60
[40] = tested on: 786-0
[41] = tested on: SW-620
[42] = tested on: KM12
[43] = tested on: MDA-MB-435
[44] = tested on: T47D
[45] = tested on: CCRF-CEM
[46] = tested on: HCT-15
[47] = tested on: HT-29
[48] = tested on: SR
[49] = tested on: TK-10
[50] = tested on: OVCAR-3
[51] = tested on: A549
[52] = tested on: MDA-N
[53] = tested on: SK-MEL-5
[54] = tested on: SF-295
[55] = tested on: K562
[56] = tested on: PC-3
[57] = tested on: UO-31
[58] = tested on: SNB-75
[59] = tested on: NCI-H226

CCC(C)C(NC(=O)C(CCCCN)NC(=O)C(NC(=O)C(CCC(N)=O)NC(=O)C(CCCNC(=N)N)NC(C)=O)C(C)CC)C(=O)NC(Cc1c[nH]c2ccccc12)C(=O)NC(Cc1ccccc1)C(=O)NC(CCC(N)=O)C(=O)NC(CC(N)=O)C(=O)NC(CCCNC(=N)N)C(=O)NC(CCCNC(=N)N)C(=O)NC(CCSC)C(=O)NC(CCCCN)C(=O)NC(Cc1c[nH]c2ccccc12)C(=O)NC(CCCCN)C(=O)NC(CCCCN)C(N)=O (centres undefined)
GI50 [1]: > 50 µM (inactive) | GI50 [2]: 17.8 µM (inactive) | GI50 [3]: > 50 µM (inactive) | GI50 [4]: > 50 µM (inactive) | GI50 [5]: > 50 µM (inactive) | GI50 [6]: 14.3 µM (inactive) | GI50 [7]: > 50 µM (inactive) | GI50 [8]: > 50 µM (inactive) | GI50 [9]: 29.8 µM (inactive) | GI50 [10]: > 50 µM (inactive) | GI50 [11]: > 50 µM (inactive) | GI50 [12]: 35.5 µM (inactive) | GI50 [13]: > 50 µM (inactive) | GI50 [14]: > 50 µM (inactive) | GI50 [15]: 39.6 µM (inactive) | GI50 [16]: > 50 µM (inactive) | GI50 [17]: 11.2 µM (inactive) | GI50 [18]: 16.5 µM (inactive) | GI50 [19]: > 50 µM (inactive) | GI50 [20]: > 50 µM (inactive) | GI50 [21]: > 50 µM (inactive) | GI50 [22]: > 50 µM (inactive) | GI50 [23]: 34.1 µM (inactive) | GI50 [24]: 46.5 µM (inactive) | GI50 [25]: 17.9 µM (inactive) | GI50 [26]: 19.7 µM (inactive) | GI50 [27]: > 50 µM (inactive) | GI50 [28]: 38.3 µM (inactive) | GI50 [29]: > 50 µM (inactive) | GI50 [30]: 49.2 µM (inactive) | GI50 [31]: 45.1 µM (inactive) | GI50 [32]: 15.5 µM (inactive) | GI50 [33]: > 50 µM (inactive) | GI50 [34]: 11.1 µM (inactive) | GI50 [35]: > 50 µM (inactive) | GI50 [36]: > 50 µM (inactive) | GI50 [37]: > 50 µM (inactive) | GI50 [38]: 31.7 µM (inactive) | GI50 [39]: > 50 µM (inactive) | GI50 [40]: 12 µM (inactive) | GI50 [41]: > 50 µM (inactive) | GI50 [42]: 14.5 µM (inactive) | GI50 [43]: 17.5 µM (inactive) | GI50 [44]: 16.3 µM (inactive) | GI50 [45]: 22.4 µM (inactive) | GI50 [46]: > 50 µM | GI50 [47]: > 50 µM (inactive) | GI50 [48]: > 50 µM (inactive) | GI50 [49]: > 50 µM (inactive) | GI50 [50]: 31.1 µM (inactive) | GI50 [51]: > 50 µM (inactive) | GI50 [52]: > 50 µM (inactive) | GI50 [53]: 22.5 µM (inactive) | GI50 [54]: > 50 µM (inactive) | GI50 [55]: 22.8 µM (inactive) | GI50 [56]: > 50 µM (inactive)

O=C(O)CN1C(=O)OC(c2ccccc2)C1=O (centres undefined)
GI50 [1]: > 100 µM (inactive) | GI50 [2]: > 100 µM (inactive) | GI50 [4]: > 100 µM (inactive) | GI50 [5]: > 100 µM (inactive) | GI50 [6]: > 100 µM (inactive) | GI50 [7]: > 100 µM (inactive) | GI50 [8]: > 100 µM (inactive) | GI50 [9]: > 100 µM (inactive) | GI50 [10]: > 100 µM (inactive) | GI50 [11]: > 100 µM (inactive) | GI50 [12]: > 100 µM (inactive) | GI50 [13]: > 100 µM (inactive) | GI50 [14]: > 100 µM (inactive) | GI50 [15]: > 100 µM (inactive) | GI50 [16]: > 100 µM (inactive) | GI50 [17]: > 100 µM (inactive) | GI50 [18]: > 100 µM (inactive) | GI50 [19]: > 100 µM (inactive) | GI50 [20]: > 100 µM (inactive) | GI50 [21]: > 100 µM (inactive) | GI50 [22]: > 100 µM (inactive) | GI50 [23]: > 100 µM (inactive) | GI50 [24]: > 100 µM (inactive) | GI50 [25]: > 100 µM (inactive) | GI50 [26]: > 100 µM (inactive) | GI50 [57]: > 100 µM (inactive) | GI50 [27]: > 100 µM (inactive) | GI50 [28]: > 100 µM (inactive) | GI50 [29]: > 100 µM (inactive) | GI50 [30]: > 100 µM (inactive) | GI50 [31]: > 100 µM (inactive) | GI50 [32]: > 100 µM (inactive) | GI50 [33]: > 100 µM (inactive) | GI50 [34]: > 100 µM (inactive) | GI50 [35]: > 100 µM (inactive) | GI50 [36]: > 100 µM (inactive) | GI50 [37]: > 100 µM (inactive) | GI50 [38]: > 100 µM (inactive) | GI50 [39]: > 100 µM (inactive) | GI50 [40]: > 100 µM (inactive) | GI50 [58]: > 100 µM (inactive) | GI50 [41]: > 100 µM (inactive) | GI50 [59]: > 100 µM (inactive) | GI50 [42]: > 100 µM (inactive) | GI50 [43]: > 100 µM (inactive) | GI50 [44]: > 100 µM (inactive) | GI50 [45]: > 100 µM (inactive) | GI50 [46]: > 100 µM | GI50 [47]: > 100 µM (inactive) | GI50 [48]: > 100 µM (inactive) | GI50 [49]: > 100 µM (inactive) | GI50 [50]: > 100 µM (inactive) | GI50 [51]: > 100 µM (inactive) | GI50 [52]: > 100 µM (inactive) | GI50 [53]: > 100 µM (inactive) | GI50 [54]: > 100 µM (inactive) | GI50 [55]: > 100 µM (inactive) | GI50 [56]: > 100 µM (inactive)

Source: ChEMBL document CHEMBL1201862, “PubChem BioAssay data set” (2004)
